We go through 5 compounds from US8883963B2 (Cadila Healthcare Limited, priority 2007, dated 2014).

Series [1] has as its system RIN5F (Rat Insulinoma) cells. In words: In vitro glucose-dependent insulin secretion (RIN5F cell assay screening protocol). It counts as cell-based. The note with it: 16.7 mM glucose load.
Series [2] in a line: Stability in simulated gastric fluid. Type of series: in vitro ADME. The note with it: 2 μM peptidomimetic, simulated gastric fluid pH 1.5, 37° C.; for half-life at 2 μM: read-out: half-life (t1/2) when incubated with simulated gastric fluid. The procedure:
(§1) Reactions were terminated by the addition of TFA/H2O (15 mL, 10% (v/v)). […] The column was equilibrated with TFA/H20, at a flow rate of 1 mL/min.

Series [3] in a line: Stability in human plasma. The following applies: 2 μM peptidomimetic, pooled human plasma, 37° C.; for half-life at 2 μM: pH 7.8, read-out: half-life (t1/2) when incubated with human plasma. It counts as in vitro ADME. The procedure:
as §1

A further series deals with DPP IV (Homo sapiens, UniProt P27487). The series can be described thus: Stability against DPP IV enzyme. It counts as in vitro ADME. The note with it: 37° C.; for % degradation of peptidomimetics in 24 h when incubated with DPP-IV enzyme: 2 μM peptidomimetic; for half-life at 2 μM: DPP IV enzyme, pH 7.8, 2 μM peptidomimetic, read-out: half-life (t1/2) when incubated with DPP-IV enzyme. How it is done: as §1

Series [4] in a line: Stability in liver microsomes. Type of series: in vitro ADME. The note with it: 2 μM peptidomimetic, human liver microsomes, 37° C.; for half-life at 2 μM: pH 7.8, read-out: half-life (t1/2) when incubated with liver microsomes. The procedure: as §1
In general terms: Liver microsomes are a subcellular fraction often used to study metabolism.

Series [5] in a line: Stability in simulated intestinal fluid. Type of series: in vitro ADME. The following applies: 2 μM peptidomimetic, simulated intestinal fluid pH 7.5, 37° C.; for half-life at 2 μM: read-out: half-life (t1/2) when incubated with simulated intestinal fluid. The procedure:
as §1

The target of the next series is T1, Human GLP-1 receptor (Homo sapiens, UniProt P43220).
T1 construct: The full-length cDNA was cloned in pcDNA3.1(+); expressed in transfected cells
The series can be described thus: In vitro Human GLP-1 R agonist activity (cyclic AMP determination) in CHO/human GLP1R cells. Type of series: cell-based.

The structures appear in SMILES notation.

Chain of DPP IV (P27487 whole entry, species assumed): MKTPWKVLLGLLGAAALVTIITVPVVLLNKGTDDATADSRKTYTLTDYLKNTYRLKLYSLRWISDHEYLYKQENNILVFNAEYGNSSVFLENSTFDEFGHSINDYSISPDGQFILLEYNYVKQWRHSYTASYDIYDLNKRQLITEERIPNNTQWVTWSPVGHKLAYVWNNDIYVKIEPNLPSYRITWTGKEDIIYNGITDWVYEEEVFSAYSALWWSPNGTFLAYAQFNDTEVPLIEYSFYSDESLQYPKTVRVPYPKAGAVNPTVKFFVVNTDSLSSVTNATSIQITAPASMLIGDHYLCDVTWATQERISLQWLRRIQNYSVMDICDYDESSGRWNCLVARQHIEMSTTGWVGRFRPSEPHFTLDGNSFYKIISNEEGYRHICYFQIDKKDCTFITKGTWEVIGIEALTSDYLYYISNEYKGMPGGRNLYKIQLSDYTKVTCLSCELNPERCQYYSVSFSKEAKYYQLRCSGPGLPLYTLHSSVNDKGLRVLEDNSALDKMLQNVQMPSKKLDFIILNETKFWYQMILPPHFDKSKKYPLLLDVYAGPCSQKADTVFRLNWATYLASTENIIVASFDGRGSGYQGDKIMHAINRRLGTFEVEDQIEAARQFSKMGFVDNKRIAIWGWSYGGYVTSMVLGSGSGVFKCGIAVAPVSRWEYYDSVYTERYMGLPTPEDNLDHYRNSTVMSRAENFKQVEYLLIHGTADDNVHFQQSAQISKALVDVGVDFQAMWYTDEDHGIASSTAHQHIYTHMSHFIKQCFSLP
T1 sequence (P43220 24-463): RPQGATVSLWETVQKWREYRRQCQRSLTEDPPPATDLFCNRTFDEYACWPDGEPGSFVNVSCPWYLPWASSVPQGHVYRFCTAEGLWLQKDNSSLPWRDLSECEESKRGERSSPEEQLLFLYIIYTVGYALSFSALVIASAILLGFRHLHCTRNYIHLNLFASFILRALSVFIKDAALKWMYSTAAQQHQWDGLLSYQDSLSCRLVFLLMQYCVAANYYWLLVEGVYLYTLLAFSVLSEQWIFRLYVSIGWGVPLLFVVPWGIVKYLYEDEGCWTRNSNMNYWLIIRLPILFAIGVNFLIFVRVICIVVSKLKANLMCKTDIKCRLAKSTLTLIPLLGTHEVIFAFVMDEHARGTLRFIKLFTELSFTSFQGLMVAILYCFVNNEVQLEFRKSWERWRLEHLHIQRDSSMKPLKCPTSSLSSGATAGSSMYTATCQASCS

`CCc1cc(OC)ccc1-c1ccc(CC(NC(=O)[C@H](CC(=O)O)NC(=O)[C@H](CO)NC(=O)[C@@H](NC(=O)[C@H](Cc2ccccc2)NC(=O)[C@@H](NC(=O)CNC(=O)[C@H](CCC(N)=O)NC(=O)[C@H](CO)NC(=O)[C@@H](N)Cc2c[nH]cn2)[C@@H](C)O)[C@@H](C)O)C(=O)NC(CCCc2ccccc2C(F)(F)F)C(N)=O)cc1` (single isomer, unassigned) [compound 47]: the Insulin secretion in series [1] (0.1 nM test compd.) was 13.1 ± 0.11 pg/µg/h; in series [1] (1 nM test compd.), 14.9 ± 0.17 pg/µg/h; in series [1] (10 nM test compd.), 28.8 ± 0.44 pg/µg/h. In addition, the “half-life (t1/2) when incubated with simulated gastric fluid” value in series [2] was “(8) h”. Further, the “% degradation of peptidomimetics in 24 h when incubated with simulated gastric fluid” value (from here on “% degradation … with simulated gastric fluid”) in series [2] is given as 12%. In addition, the “% degradation of peptidomimetics in 24 h when incubated with human plasma” value (shortened to “% degradation … with human plasma”) in series [3] is 78%. For the same compound, the half-life at 2 μM in series [3] came to 8 h; at DPP IV it was 9 h; in series [4] it was 1 h. The “% degradation of peptidomimetics in 24 h when incubated with DPP-IV enzyme” value (“% degradation … with DPP-IV enzyme” for short) at DPP IV was found to be 76%. Moreover, the “% degradation of peptidomimetics in 24 h when incubated with liver microsomes” value (“% degradation … with liver microsomes” for short) in series [4] was determined as 79%. For the same compound, the “half-life (t1/2) when incubated with simulated intestinal fluid” value in series [5] is on record as “(6) h”. The “% degradation of peptidomimetics in 24 h when incubated with simulated intestinal fluid” value (“% degradation … with simulated intestinal fluid” below) in series [5] is reported as 55%. For the same compound, the “Human GLP-1 R activity (cAMP release), % activity with respect to control” value was found to be 55 ± 0.16% on Human GLP-1 receptor (1 nM test compound); 89 ± 0.05% on Human GLP-1 receptor (10 nM test compound); 93 ± 0.09% on Human GLP-1 receptor (100 nM test compound); 99 ± 0.02% on Human GLP-1 receptor (1 μM test compound); 99 ± 0.04% at Human GLP-1 receptor (10 μM test compound).
`CCc1cc(OC)ccc1-c1ccc(CC(NC(=O)[C@H](CC(=O)O)NC(=O)[C@H](CO)NC(=O)[C@@H](NC(=O)[C@H](Cc2ccccc2)NC(=O)[C@@H](NC(=O)CNC(=O)[C@H](CCC(N)=O)NC(=O)[C@H](CO)NC(=O)[C@@H](N)Cc2c[nH]cn2)[C@@H](C)O)[C@@H](C)O)C(=O)NC(CCCc2ccccc2Cl)C(N)=O)cc1` (single isomer, unassigned) [compound 50]: the Insulin secretion was 15.4 ± 0.14 pg/µg/h in series [1] (0.1 nM test compd.), 21.2 ± 0.18 pg/µg/h in series [1] (1 nM test compd.) and 35.6 ± 0.17 pg/µg/h in series [1] (10 nM test compd.). Also, the “half-life (t1/2) when incubated with simulated gastric fluid” value in series [2] is reported as “(8) h”. Moreover, the “% degradation … with simulated gastric fluid” value in series [2] was 13%. Moreover, in series [3], the “% degradation … with human plasma” value stood at 80%. For the same compound, the values for the half-life at 2 μM (in series [3]; on DPP IV; in series [4]) were 8 h, 9 h and 1 h, respectively. Further, on DPP IV, the “% degradation … with DPP-IV enzyme” value is reported as 77%. The “% degradation … with liver microsomes” value in series [4] was 82%. Also, the “half-life (t1/2) when incubated with simulated intestinal fluid” value in series [5] is listed as “(6) h”. In addition, the “% degradation … with simulated intestinal fluid” value in series [5] is on record as 50%. Moreover, the “Human GLP-1 R activity (cAMP release), % activity with respect to control” value at Human GLP-1 receptor (1 nM test compound) was determined as 60 ± 0.12%; at Human GLP-1 receptor (10 nM test compound), 92 ± 0.15%; on Human GLP-1 receptor (100 nM test compound), 98 ± 0.18%; at Human GLP-1 receptor (1 μM test compound), 99 ± 0.03%; at Human GLP-1 receptor (10 μM test compound), 99 ± 0.09%.
`CCc1cc(OC)ccc1-c1ccc(CC(NC(=O)[C@H](CC(=O)O)NC(=O)[C@H](CO)NC(=O)[C@@H](NC(=O)[C@H](Cc2ccccc2)NC(=O)[C@@H](NC(=O)CNC(=O)C(CCC#N)NC(=O)C(C)(C)NC(=O)[C@@H](N)Cc2c[nH]cn2)[C@@H](C)O)[C@@H](C)O)C(=O)NC(CCCc2ccc(F)cc2C(F)(F)F)C(N)=O)cc1` (single isomer, unassigned) [compound 80]: the Insulin secretion came to 16.2 ± 0.13 pg/µg/h in series [1] (0.1 nM test compd.), 22.4 ± 0.19 pg/µg/h in series [1] (1 nM test compd.) and 36.2 ± 0.09 pg/µg/h in series [1] (10 nM test compd.). For the same compound, the “% degradation … with simulated gastric fluid” value in series [2] is 100%. Further, the half-life at 2 μM in series [2], in series [4] and in series [5] was 0.5 h throughout. The “half-life (t1/2) when incubated with human plasma” value in series [3] was “(9) h”. Moreover, in series [3], the “% degradation … with human plasma” value is 70%. Also, at DPP IV, the “% degradation … with DPP-IV enzyme” value came to 72%. The “% degradation … with liver microsomes” value in series [4] is recorded as 100%. The “% degradation … with simulated intestinal fluid” value in series [5] is 100%. The “Human GLP-1 R activity (cAMP release), % activity with respect to control” value on Human GLP-1 receptor (1 nM test compound) is given as 66 ± 0.022%; at Human GLP-1 receptor (10 nM test compound), 97 ± 0.46%; on Human GLP-1 receptor (100 nM test compound), 99 ± 0.41%; at Human GLP-1 receptor (1 μM test compound), 99 ± 0.66%; on Human GLP-1 receptor (10 μM test compound) it was 99 ± 0.03%.
With `CCc1cc(OC)ccc1-c1ccc(CC(NC(=O)[C@H](CC(=O)O)NC(=O)[C@H](CO)NC(=O)[C@@H](NC(=O)[C@H](Cc2ccccc2)NC(=O)[C@@H](NC(=O)CNC(=O)C(CCC#N)NC(=O)C(C)(C)NC(=O)[C@@H](N)Cc2c[nH]cn2)[C@@H](C)O)[C@@H](C)O)C(=O)NC(CCCc2ccc(C(F)(F)F)cc2F)C(N)=O)cc1` (single isomer, unassigned) [compound 81], the Insulin secretion in series [1] (0.1 nM test compd.) came out at 17.1 ± 0.15 pg/µg/h; in series [1] (1 nM test compd.), 23.1 ± 0.12 pg/µg/h; in series [1] (10 nM test compd.), 37.0 ± 0.19 pg/µg/h. The “% degradation … with simulated gastric fluid” value in series [2] is recorded as 50%. Moreover, the half-life at 2 μM is 4 h in series [2]; above 24 h in series [3]; above 24 h on DPP IV; 2 h in series [4]; above 24 h in series [5]. Further, in series [3], the “% degradation … with human plasma” value worked out at 00%. Besides, the “% degradation … with DPP-IV enzyme” value at DPP IV was 00%. In addition, in series [4], the “% degradation … with liver microsomes” value was determined as 86%. The “% degradation … with simulated intestinal fluid” value in series [5] is on record as 00%. The “Human GLP-1 R activity (cAMP release), % activity with respect to control” value at Human GLP-1 receptor (1 nM test compound) is given as 69 ± 0.09%; at Human GLP-1 receptor (10 nM test compound), 98 ± 0.07%; at Human GLP-1 receptor (100 nM test compound) it was 99 ± 0.04%; at Human GLP-1 receptor (1 μM test compound), 99 ± 0.01%; at Human GLP-1 receptor (10 μM test compound), 99 ± 0.08%.
Regarding `CCc1cc(OC)ccc1-c1ccc(CC(NC(=O)[C@H](CC(=O)O)NC(=O)[C@H](CO)NC(=O)[C@@H](NC(=O)[C@H](Cc2ccccc2)NC(=O)[C@@H](NC(=O)CNC(=O)C(CCC#N)NC(=O)C(C)(C)NC(=O)[C@@H](N)Cc2c[nH]cn2)[C@@H](C)O)[C@@H](C)O)C(=O)NC(CCCc2ccccc2Cl)C(N)=O)cc1` (single isomer, unassigned) [compound 82], the values for the Insulin secretion in series [1] (0.1 nM test compd.), in series [1] (1 nM test compd.) and in series [1] (10 nM test compd.) were 16.9 ± 0.22 pg/µg/h, 22.8 ± 0.31 pg/µg/h and 36.7 ± 0.34 pg/µg/h, respectively. In addition, the “% degradation … with simulated gastric fluid” value in series [2] is on record as 55%. The half-life at 2 μM in series [2] is 4 h; in series [3], above 24 h; on DPP IV, above 24 h; in series [4], 2 h; in series [5], above 24 h. Also, in series [3], the “% degradation … with human plasma” value is recorded as 00%. In addition, at DPP IV, the “% degradation … with DPP-IV enzyme” value is 00%. In series [4], the “% degradation … with liver microsomes” value is on record as 84%. Also, the “% degradation … with simulated intestinal fluid” value in series [5] is reported as 00%. Further, the “Human GLP-1 R activity (cAMP release), % activity with respect to control” value came to 78 ± 0.12% at Human GLP-1 receptor (1 nM test compound); 99 ± 0.15% at Human GLP-1 receptor (10 nM test compound); 99 ± 0.18% on Human GLP-1 receptor (100 nM test compound); 99 ± 0.03% at Human GLP-1 receptor (1 μM test compound); 99 ± 0.09% at Human GLP-1 receptor (10 μM test compound).
